system: IL-5 production in human blood; assay: In vitro inhibition of IL-5 production in human blood (phytohemagglutinin-stimulated whole blood, ELISA); type: cell-based; details: test dose 1×10^−6 M, phytohemagglutinin 2 μg/ml, 48 hours
Procedure: EXAMPLE C.1: IN VITRO INHIBITION OF IL-5 PRODUCTION IN HUMAN BLOOD
Peripheral blood from healthy male donors was drawn into heparinized syringes (12.5 U heparin/ml). Blood samples were three-fold diluted in RMPI 1640 medium (Life Technologies, Belgium) supplemented with 2 mM L-glutamine, 100 U/ml penicillin and 100 μg/ml streptomycin, and 300 μl fractions were distributed in 24-well multidisc plates. Blood samples were preincubated (60 minutes at 37° C.) in a humidified 6% CO2-atmosphere with 100 μl of drug solvent (final concentration 0.02% dimethylsulfoxide in RPMI 1640) or with 100 μl of an appropriate dose of test compound before being stimulated by the addition of 100 μl of phytohemagglutinin HA17 (Murex, UK) at a final concentration of 2 μg/ml. After 48 hours, cell-free supernatant fluids were collected by centrifugation and stored at −70° C. until tested for the presence of IL-5.
IL-5 measurements were conducted as described in Van Wauwe et al. (1996, Inflamm Res, 45, 357-363) on page 358 using ELISA.
Table 6 lists the percentage inhibition of IL-5 production (column “% inh”) at a test dose of 1×10^−6 M, or in case the percentage inhibition is marked with an “*” 1×10^−5 M, for the compounds of the present invention.

**Q.** For `CC(C)(c1nc(-c2ccccc2Cl)c(-c2cccc(C(=O)O)c2)s1)c1c(Cl)cc(-n2ncc(=O)[nH]c2=O)cc1Cl` [Compound 56], which “% inh. (percentage inhibition of IL-5 production)” value is on record?
**A.** −4%

**Q.** Which “% inh. (percentage inhibition of IL-5 production)” value does the source give for `CC(C)(c1noc(-c2cccc(Cl)c2)n1)c1c(Cl)cc(-n2ncc(=O)[nH]c2=O)cc1Cl` [Compound 93] here?
**A.** 84%

**Q.** Which “% inh. (percentage inhibition of IL-5 production)” value does the source give for `COC(=O)c1ccc(-c2nc(C(C)(C)c3c(Cl)cc(-n4ncc(=O)[nH]c4=O)cc3Cl)no2)cc1` [Compound 135] here?
**A.** 11%

**Q.** Which “% inh. (percentage inhibition of IL-5 production)” value does the source give for `CC(C)(c1noc(-c2ccccc2F)n1)c1c(Cl)cc(-n2ncc(=O)[nH]c2=O)cc1Cl` [Compound 86] here?
**A.** 88%

**Q.** How did the “% inh. (percentage inhibition of IL-5 production)” value turn out when `COCCNCc1cccc(-c2sc(C(C)(C)c3c(Cl)cc(-n4ncc(=O)[nH]c4=O)cc3Cl)nc2-c2ccccc2Cl)c1.Cl` [Compound 69] was run?
**A.** 45%

**Q.** With `CC(C)(c1nc(-c2cccnc2)cs1)c1c(Cl)cc(-n2ncc(=O)[nH]c2=O)cc1Cl` [Compound 82] as the compound, how does the “% inh. (percentage inhibition of IL-5 production)” value read?
**A.** 85%

**Q.** Which “% inh. (percentage inhibition of IL-5 production)” value does the source give for “3-[2-[1-[2,6-dichloro-4-(4,5-dihydro-3,5-dioxo-1,2,4-triazin-2(3H)-yl)phenyl]-1-methylethyl-4-(2-chlorophenyl)-5-thiazolyl]-N-(2-methoxyethyl)-benzamide [Compound 63]” here?
**A.** 38%

**Q.** How did the “% inh. (percentage inhibition of IL-5 production)” value turn out when `CC(C)(c1nc(-c2ccc(C#N)s2)cs1)c1c(Cl)cc(-n2ncc(=O)[nH]c2=O)cc1Cl` [Compound 78] was run?
**A.** 79%

**Q.** Which “% inh. (percentage inhibition of IL-5 production)” value does the source give for `CC(C)(c1nc(-c2ccc(Br)s2)cs1)c1c(Cl)cc(-n2ncc(=O)[nH]c2=O)cc1Cl` [Compound 77] here?
**A.** 84%

**Q.** `CCOC(=O)Cc1sc(C(C)(C)c2c(Cl)cc(-n3ncc(=O)[nH]c3=O)cc2Cl)nc1-c1ccccc1` [Compound 9] was tested. Which “% inh. (percentage inhibition of IL-5 production)” value did it give?
**A.** 88%

**Q.** For `CC(C)(c1nc(-c2ccccc2)c(-c2cccc(NS(N)(=O)=O)c2)s1)c1c(Cl)cc(-n2ncc(=O)[nH]c2=O)cc1Cl` [Compound 60], which “% inh. (percentage inhibition of IL-5 production)” value is on record?
**A.** 28%

**Q.** `COC(=O)c1cccc(-c2nc(C(C)(C)c3c(Cl)cc(-n4ncc(=O)[nH]c4=O)cc3Cl)no2)c1` [Compound 133] was tested. Which “% inh. (percentage inhibition of IL-5 production)” value did it give?
**A.** 55%

**Q.** For `CC(C)(c1nc(-c2ccccc2)c(C(=O)c2ccccc2)s1)c1c(Cl)cc(-n2ncc(=O)[nH]c2=O)cc1Cl` [Compound 25], which “% inh. (percentage inhibition of IL-5 production)” value is on record?
**A.** 79%

**Q.** `Cc1sc(C(C)(C)c2c(Cl)cc(-n3ncc(=O)[nH]c3=O)cc2Cl)nc1-c1cccc(F)c1` [Compound 17] was tested. Which “% inh. (percentage inhibition of IL-5 production)” value did it give?
**A.** 94%

**Q.** For `CC(C)(c1nc(-c2ccccc2Cl)c(C=O)s1)c1c(Cl)cc(-n2ncc(=O)[nH]c2=O)cc1Cl` [Compound 46], which “% inh. (percentage inhibition of IL-5 production)” value is on record?
**A.** 44%

**Q.** For `CC(C)(c1nc(-c2ccc(Br)cc2)cs1)c1c(Cl)cc(-n2ncc(=O)[nH]c2=O)cc1Cl` [Compound 12], which “% inh. (percentage inhibition of IL-5 production)” value is on record?
**A.** 70%

**Q.** For `CCOC(=O)Cc1sc(C(C)(C)c2c(Cl)cc(-n3ncc(=O)[nH]c3=O)cc2Cl)nc1-c1cccs1` [Compound 118], which “% inh. (percentage inhibition of IL-5 production)” value is on record?
**A.** 78%

**Q.** With `CC(C)(c1nc(-c2ccccc2)c(CC(=O)N2CCOCC2)s1)c1c(Cl)cc(-n2ncc(=O)[nH]c2=O)cc1Cl` [Compound 20] as the compound, how does the “% inh. (percentage inhibition of IL-5 production)” value read?
**A.** 80%

**Q.** For `CC(C)(c1nc(-c2ccc(-c3cccs3)s2)cs1)c1c(Cl)cc(-n2ncc(=O)[nH]c2=O)cc1Cl` [Compound 84], which “% inh. (percentage inhibition of IL-5 production)” value is on record?
**A.** 14%

**Q.** With `Cc1ccccc1-c1csc(C(C)(C)c2c(Cl)cc(-n3ncc(=O)[nH]c3=O)cc2Cl)n1` [Compound 40] as the compound, how does the “% inh. (percentage inhibition of IL-5 production)” value read?
**A.** 89%

**Q.** `CC(C)(c1nc(-c2ccncc2)cs1)c1c(Cl)cc(-n2ncc(=O)[nH]c2=O)cc1Cl` [Compound 7] was tested. Which “% inh. (percentage inhibition of IL-5 production)” value did it give?
**A.** 88%

**Q.** With “(α+β)-2-[3,5-dichloro-4-[1-[5-[3-[[tetrahydro-3,4,5-trihydroxy-6-hydroxymethyl)-2H-pyran-2H-pyran-2-yl]amino]phenyl]-4-phenyl-2-thiazolyl]-1-methylethyl]phenyl]-1,2,4-triazine-3,5(2H,4H)-dione 2-propanolate(1:1) [Compound 64]” as the compound, how does the “% inh. (percentage inhibition of IL-5 production)” value read?
**A.** 86%

**Q.** Which “% inh. (percentage inhibition of IL-5 production)” value does the source give for `CC(C)(c1noc(-c2ccccc2Cl)n1)c1c(Cl)cc(-n2ncc(=O)[nH]c2=O)cc1Cl` [Compound 89] here?
**A.** 84%

**Q.** How did the “% inh. (percentage inhibition of IL-5 production)” value turn out when `Cc1sc(C(C)(C)c2c(Cl)cc(-n3ncc(=O)[nH]c3=O)cc2Cl)nc1-c1ccccc1F` [Compound 15] was run?
**A.** 81%

**Q.** `COc1ccccc1-c1csc(C(C)(C)c2c(Cl)cc(-n3ncc(=O)[nH]c3=O)cc2Cl)n1` [Compound 26] was tested. Which “% inh. (percentage inhibition of IL-5 production)” value did it give?
**A.** 84%

**Q.** `COc1cccc(-c2sc(C(C)(C)c3c(Cl)cc(-n4ncc(=O)[nH]c4=O)cc3Cl)nc2-c2ccccc2)c1` [Compound 55] was tested. Which “% inh. (percentage inhibition of IL-5 production)” value did it give?
**A.** 92%

**Q.** With `CC(C)(c1nc(-c2cccc(Cl)c2)c(-c2ccccc2)s1)c1c(Cl)cc(-n2ncc(=O)[nH]c2=O)cc1Cl` [Compound 37] as the compound, how does the “% inh. (percentage inhibition of IL-5 production)” value read?
**A.** 92%

**Q.** `Cc1ccsc1-c1csc(C(C)(C)c2c(Cl)cc(-n3ncc(=O)[nH]c3=O)cc2Cl)n1` [Compound 75] was tested. Which “% inh. (percentage inhibition of IL-5 production)” value did it give?
**A.** 91%

**Q.** With `CC(C)(c1nc(-c2ccccc2F)cs1)c1c(Cl)cc(-n2ncc(=O)[nH]c2=O)cc1Cl` [Compound 11] as the compound, how does the “% inh. (percentage inhibition of IL-5 production)” value read?
**A.** 88%

**Q.** `CC(C)(c1noc(-c2cccc(CO)c2)n1)c1c(Cl)cc(-n2ncc(=O)[nH]c2=O)cc1Cl` [Compound 127] was tested. Which “% inh. (percentage inhibition of IL-5 production)” value did it give?
**A.** 67%

same assay, conditions: test dose 1×10^−6 M, phytohemagglutinin 2 μg/ml, 48 hours, read-out: % inh. (percentage inhibition of IL-5 production)

**Q.** `Cc1ncccc1-c1nc(C(C)(C)c2c(Cl)cc(-n3ncc(=O)[nH]c3=O)cc2Cl)no1` [Compound 150, 2-[3,5-dichloro-4-[1-methyl-1-[5-(2-methyl-3-pyridinyl)-1,2,4-oxadiazol-3-yl]ethyl]phenyl]-1,2,4-triazine-3,5(2H,4H)-dione] was tested. Which inhibition at 1 µM did it give?
**A.** 73%

**Q.** Which inhibition at 1 µM does the source give for `CC(C)(c1nc(-c2ccco2)cs1)c1c(Cl)cc(-n2ncc(=O)[nH]c2=O)cc1Cl` [Compound 83, 2-[3,5-dichloro-4-[1-[4-(2-furanyl)-2-thiazolyl]-1-methylethyl]phenyl]-1,2,4-triazine-3,5(2H,4H)-dione] here?
**A.** 78%

**Q.** `CC(C)(c1nc(-c2ccccc2)c(Cc2ccccc2)s1)c1c(Cl)cc(-n2ncc(=O)[nH]c2=O)cc1Cl` [Compound 43, 2-[3,5-dichloro-4-[1-methyl-1-[4-phenyl-5-(phenylmethyl)-2-thiazolyl]ethyl]phenyl]-1,2,4-triazine-3,5(2H,4H)-dione] was tested. Which inhibition at 1 µM did it give?
**A.** 86%

**Q.** For `CC(C)(c1nc(-c2ccccc2Cl)c(-c2cccc(CO)c2)s1)c1c(Cl)cc(-n2ncc(=O)[nH]c2=O)cc1Cl` [Compound 59, 2-[3,5-dichloro-4-[1-[4-(2-chlorophenyl)-5-[3-(hydroxymethyl)phenyl]-2-thiazolyl]-1-methylethyl]phenyl]-1,2,4-triazine-3,5(2H,4H)-dione], which inhibition at 1 µM is on record?
**A.** 82%

**Q.** With `CC(C)(c1nc(-c2ccccc2)c(-c2cccc(NC(=O)N3CCNCC3)c2)s1)c1c(Cl)cc(-n2ncc(=O)[nH]c2=O)cc1Cl` [Compound 71, N-[3-[2-[1-[2,6-dichloro-4-(4,5-dihydro-3,5-dioxo-1,2,4-triazin-2(3H)-yl)phenyl]-1-methylethyl]-4-phenyl-5-thiazolyl]-phenyl]-1-piperazinecarboxamide monohydrate] as the compound, how does the inhibition at 1 µM read?
**A.** 27%

**Q.** `COCCN1CCN(Cc2sc(C(C)(C)c3c(Cl)cc(-n4ncc(=O)[nH]c4=O)cc3Cl)nc2-c2ccccc2)CC1` [Compound 42, 2-[3,5-dichloro-4-[1-[5-[[4-(2-methoxyethyl)-1-piperazinyl]methyl]-4-phenyl-2-thiazolyl]-1-methylethyl]phenyl]-1,2,4-triazine-3,5(2H,4H)-dione] was tested. Which inhibition at 1 µM did it give?
**A.** 26%

**Q.** Which inhibition at 1 µM does the source give for `Cc1nc(C(C)(C)c2c(Cl)cc(-n3ncc(=O)[nH]c3=O)cc2Cl)sc1-c1ccccc1` [Compound 31, 2-[3,5-dichloro-4-[1-methyl-1-(4-methyl-5-phenyl-2-thiazolyl)ethyl]phenyl]-1,2,4-triazine-3,5(2H,4H)-dione] here?
**A.** 87%

**Q.** `CC(C)(c1nc(-c2ccccc2)c(-c2cccnc2)s1)c1c(Cl)cc(-n2ncc(=O)[nH]c2=O)cc1Cl` [Compound 33, 2-[3,5-dichloro-4-[1-methyl-1-[4-phenyl-5-(3-pyridinyl)-2-thiazolyl]ethyl]phenyl]-1,2,4-triazine-3,5(2H,4H)-dione] was tested. Which inhibition at 1 µM did it give?
**A.** 90%

**Q.** For `CC(C)(c1nc(-c2ccccc2)c(C(O)c2ccccc2)s1)c1c(Cl)cc(-n2ncc(=O)[nH]c2=O)cc1Cl` (racemic) [Compound 29, (±)-2-[3,5-dichloro-4-[1-[5-(hydroxyphenylmethyl)4-phenyl-2-thiazolyl]-1-methyl-ethyl]phenyl]-1,2,4-triazin-3,5(2H,4H)-dione], which inhibition at 1 µM is on record?
**A.** 71%

**Q.** How did the inhibition at 1 µM turn out when `CC(C)(c1noc(-c2cccnc2)n1)c1c(Cl)cc(-n2ncc(=O)[nH]c2=O)cc1Cl` [Compound 124, 2-[3,5-dichloro-4-[1-methyl-1-[5-(3-pyridinyl)-1,2,4-oxadiazol-3-yl]ethyl]phenyl]-1,2,4-triazine-3,5(2H,4H)-dione] was run?
**A.** 86%

**Q.** `CC(=O)Nc1cccc(-c2sc(C(C)(C)c3c(Cl)cc(-n4ncc(=O)[nH]c4=O)cc3Cl)nc2-c2ccccc2)c1` [Compound 51, N-[3-[2-[1-[2,6-dichloro-4-(4,5-dihydro-3,5-dioxo-1,2,4-triazin-2(3H)-yl)phenyl]-1-methylethyl]4-phenyl-5-thiazolyl]phenyl]-acetamide] was tested. Which inhibition at 1 µM did it give?
**A.** 73%

Reference: patent US6894046B2, “IL-5 inhibiting 6-azauracil derivatives” (Janssen Pharmaceutica N.V., priority 1998, dated 2005)
